Source: the NIST ThermoML archive (doi:10.1016/j.jct.2008.02.019)

How the values were obtained:
[1] = excess molar enthalpy (molar enthalpy of mixing); xn = mol fraction of the nth substance listed; conditions: 101 kPa, Liquid, Flow calorimetry
[2] = xn = mol fraction of the nth substance listed; conditions: 101 kPa, Liquid
[3] = 101.33 kPa, Liquid
[4] = refractive index (Na D-line) (dimensionless); conditions: 101.33 kPa, Liquid, Standard Abbe refractometry

CCCC[n+]1ccc(C)cc1.F[B-](F)(F)F [1-butyl-4-methylpyridinium tetrafluoroborate] + CCCO
Conditions	excess molar enthalpy [kJ/mol]	mass density [kg/m3]
[1], 298.15 K, x1 = 0.012	0.132	–
[1], 298.15 K, x1 = 0.0243	0.216	–
[1], 298.15 K, x1 = 0.0308	0.301	–
[1], 298.15 K, x1 = 0.3198	2.49	–
[1], 298.15 K, x1 = 0.3532	2.46	–
[1], 298.15 K, x1 = 0.3908	2.42	–
[1], 298.15 K, x1 = 0.4344	2.34	–
[1], 298.15 K, x1 = 0.4819	2.26	–
[1], 298.15 K, x1 = 0.5374	2.11	–
[1], 298.15 K, x1 = 0.6008	1.91	–
[1], 298.15 K, x1 = 0.6734	1.65	–
[1], 298.15 K, x1 = 0.752	1.32	–
[1], 298.15 K, x1 = 0.8319	0.99	–
[1], 298.15 K, x1 = 0.9181	0.579	–
[1], 318.15 K, x1 = 0.0189	0.388	–
[1], 318.16 K, x1 = 0.054	0.96	–
[1], 318.17 K, x1 = 0.093	1.47	–
[1], 318.18 K, x1 = 0.1341	1.9	–
[1], 318.19 K, x1 = 0.1775	2.27	–
[1], 318.2 K, x1 = 0.2167	2.55	–
[1], 318.21 K, x1 = 0.2312	2.68	–
[1], 318.22 K, x1 = 0.2581	2.8	–
[1], 318.23 K, x1 = 0.2912	2.9	–
[1], 318.24 K, x1 = 0.331	2.96	–
[1], 318.25 K, x1 = 0.3847	2.94	–
[1], 318.26 K, x1 = 0.4488	2.89	–
[1], 318.27 K, x1 = 0.5249	2.72	–
[1], 318.28 K, x1 = 0.6069	2.45	–
[1], 318.29 K, x1 = 0.6964	2.08	–
[1], 318.3 K, x1 = 0.7815	1.69	–
[1], 318.31 K, x1 = 0.846	1.29	–
[1], 318.32 K, x1 = 0.9043	0.825	–
[1], 318.33 K, x1 = 0.9568	0.436	–
[2], 298.15 K, x1 = 0.0154	–	815.6
[2], 298.15 K, x1 = 0.0271	–	827.2
[2], 298.15 K, x1 = 0.2988	–	1006.8
[2], 298.15 K, x1 = 0.3987	–	1047.4
[2], 298.15 K, x1 = 0.4965	–	1079.8
[2], 298.15 K, x1 = 0.5972	–	1107.8
[2], 298.15 K, x1 = 0.6889	–	1129.1
[2], 298.15 K, x1 = 0.696	–	1130.6
[2], 298.15 K, x1 = 0.7812	–	1147.9
[2], 298.15 K, x1 = 0.8841	–	1165.9
[2], 318.15 K, x1 = 0.0549	–	837.6
[2], 318.15 K, x1 = 0.1008	–	875.1
[2], 318.15 K, x1 = 0.1969	–	939.6
[2], 318.15 K, x1 = 0.3103	–	997.6
[2], 318.15 K, x1 = 0.3828	–	1027.5
[2], 318.15 K, x1 = 0.4381	–	1047.4
[2], 318.15 K, x1 = 0.4534	–	1052.4
[2], 318.15 K, x1 = 0.4901	–	1064
[2], 318.15 K, x1 = 0.6039	–	1095.2
[2], 318.15 K, x1 = 0.6726	–	1111.2
[2], 318.15 K, x1 = 0.8248	–	1141.4
[2], 318.15 K, x1 = 0.8967	–	1156.9
[2], 318.15 K, x1 = 0.9191	–	1153.3

CCCC[n+]1ccc(C)cc1.F[B-](F)(F)F [1-butyl-4-methylpyridinium tetrafluoroborate]
Conditions	mass density, [3] [kg/m3]	refractive index, [4]
298.15 K	1183.49	1.4517
318.15 K	1169.12	1.447

CCCC[n+]1ccc(C)cc1.F[B-](F)(F)F [1-butyl-4-methylpyridinium tetrafluoroborate] + CCCCCO
[2], 318.15 K
Conditions	mass density [kg/m3]
x1 = 0.5651	1060.4
x1 = 0.6035	1072.1
x1 = 0.6715	1091.9
x1 = 0.7601	1115.3
x1 = 0.8041	1126.1
x1 = 0.8616	1139.6
x1 = 0.912	1150.8

CCCC[n+]1ccc(C)cc1.F[B-](F)(F)F [1-butyl-4-methylpyridinium tetrafluoroborate] + CCCCO
Conditions	excess molar enthalpy [kJ/mol]	mass density [kg/m3]
[1], 318.15 K, x1 = 0.0242	0.468	–
[1], 318.16 K, x1 = 0.0613	0.944	–
[1], 318.17 K, x1 = 0.1029	1.42	–
[1], 318.18 K, x1 = 0.1466	1.79	–
[1], 318.19 K, x1 = 0.1938	2.21	–
[1], 318.2 K, x1 = 0.24	2.52	–
[1], 318.21 K, x1 = 0.2864	2.74	–
[1], 318.22 K, x1 = 0.3344	2.9	–
[1], 318.23 K, x1 = 0.3708	2.95	–
[1], 318.24 K, x1 = 0.4149	2.96	–
[1], 318.25 K, x1 = 0.4635	2.89	–
[1], 318.26 K, x1 = 0.5162	2.79	–
[1], 318.27 K, x1 = 0.5729	2.61	–
[1], 318.28 K, x1 = 0.6488	2.27	–
[1], 318.29 K, x1 = 0.7232	1.94	–
[1], 318.3 K, x1 = 0.7962	1.51	–
[1], 318.31 K, x1 = 0.8569	1.16	–
[1], 318.32 K, x1 = 0.9006	0.817	–
[1], 318.33 K, x1 = 0.9435	0.538	–
[2], 298.15 K, x1 = 0.5948	–	1094.4
[2], 298.15 K, x1 = 0.692	–	1120.2
[2], 298.15 K, x1 = 0.739	–	1131.5
[2], 298.15 K, x1 = 0.7851	–	1141.8
[2], 298.15 K, x1 = 0.8916	–	1163.9
[2], 318.15 K, x1 = 0.0548	–	833.2
[2], 318.15 K, x1 = 0.1169	–	875.7
[2], 318.15 K, x1 = 0.2301	–	940.7
[2], 318.15 K, x1 = 0.3406	–	992.1
[2], 318.15 K, x1 = 0.4471	–	1033.5
[2], 318.15 K, x1 = 0.564	–	1071.4
[2], 318.15 K, x1 = 0.6758	–	1102.2
[2], 318.15 K, x1 = 0.7856	–	1128.1
[2], 318.15 K, x1 = 0.8427	–	1140
[2], 318.15 K, x1 = 0.887	–	1148.6

CCCCCO [pentan-1-ol]
Conditions	mass density [kg/m3]
[3], 318.15 K, Vibrating tube method	796.1

[4]
Conditions	refractive index
298.15 K	1.4078
318.15 K	1.4003

CCCC[n+]1ccc(C)cc1.F[B-](F)(F)F [1-butyl-4-methylpyridinium tetrafluoroborate] + O
Conditions	excess molar enthalpy [kJ/mol]	mass density [kg/m3]
[1], 298.15 K, x1 = 0.0072	0.104	–
[1], 298.15 K, x1 = 0.0145	0.198	–
[1], 298.15 K, x1 = 0.0215	0.284	–
[1], 298.15 K, x1 = 0.0303	0.38	–
[1], 298.15 K, x1 = 0.0406	0.491	–
[1], 298.15 K, x1 = 0.0526	0.613	–
[1], 298.15 K, x1 = 0.0659	0.74	–
[1], 298.15 K, x1 = 0.0805	0.876	–
[1], 298.15 K, x1 = 0.0963	1.01	–
[1], 298.15 K, x1 = 0.1144	1.16	–
[1], 298.15 K, x1 = 0.1563	1.46	–
[1], 298.15 K, x1 = 0.1863	1.59	–
[1], 298.15 K, x1 = 0.2196	1.7	–
[1], 298.15 K, x1 = 0.2577	1.77	–
[1], 298.15 K, x1 = 0.2972	1.81	–
[1], 298.15 K, x1 = 0.3449	1.81	–
[1], 298.15 K, x1 = 0.3974	1.76	–
[1], 298.15 K, x1 = 0.4857	1.59	–
[1], 298.15 K, x1 = 0.5954	1.34	–
[1], 298.15 K, x1 = 0.7282	0.962	–
[1], 298.15 K, x1 = 0.8706	0.486	–
[1], 318.15 K, x1 = 0.0097	0.188	–
[1], 318.16 K, x1 = 0.0226	0.392	–
[1], 318.17 K, x1 = 0.0382	0.606	–
[1], 318.18 K, x1 = 0.0565	0.825	–
[1], 318.19 K, x1 = 0.0755	1.04	–
[1], 318.2 K, x1 = 0.0949	1.23	–
[1], 318.21 K, x1 = 0.1132	1.4	–
[1], 318.22 K, x1 = 0.1187	1.51	–
[1], 318.23 K, x1 = 0.1414	1.68	–
[1], 318.24 K, x1 = 0.1695	1.84	–
[1], 318.25 K, x1 = 0.2008	1.97	–
[1], 318.26 K, x1 = 0.2346	2.09	–
[1], 318.27 K, x1 = 0.2746	2.19	–
[1], 318.28 K, x1 = 0.3253	2.25	–
[1], 318.29 K, x1 = 0.383	2.23	–
[1], 318.3 K, x1 = 0.441	2.16	–
[1], 318.31 K, x1 = 0.5071	2.03	–
[1], 318.32 K, x1 = 0.5961	1.76	–
[1], 318.33 K, x1 = 0.6778	1.42	–
[1], 318.34 K, x1 = 0.7866	0.988	–
[1], 318.35 K, x1 = 0.9058	0.428	–
[2], 298.15 K, x1 = 0.0502	–	1060.5
[2], 298.15 K, x1 = 0.1042	–	1094.8
[2], 298.15 K, x1 = 0.1512	–	1112.7
[2], 298.15 K, x1 = 0.2006	–	1126.1
[2], 298.15 K, x1 = 0.2543	–	1136.1
[2], 298.15 K, x1 = 0.2948	–	1142.4
[2], 298.15 K, x1 = 0.4	–	1154.1
[2], 298.15 K, x1 = 0.4913	–	1161.5
[2], 298.15 K, x1 = 0.6014	–	1168.3
[2], 298.15 K, x1 = 0.7228	–	1173.9
[2], 298.15 K, x1 = 0.7493	–	1175.1
[2], 298.15 K, x1 = 0.783	–	1176.4
[2], 298.15 K, x1 = 0.8449	–	1178.7
[2], 298.15 K, x1 = 0.8731	–	1179.8
[2], 298.15 K, x1 = 0.9504	–	1182.1
[2], 318.15 K, x1 = 0.0327	–	1033
[2], 318.15 K, x1 = 0.0994	–	1080
[2], 318.15 K, x1 = 0.1505	–	1098.7
[2], 318.15 K, x1 = 0.1989	–	1111.3
[2], 318.15 K, x1 = 0.236	–	1118.6
[2], 318.15 K, x1 = 0.2921	–	1127.6
[2], 318.15 K, x1 = 0.3237	–	1131.9
[2], 318.15 K, x1 = 0.4169	–	1141.3
[2], 318.15 K, x1 = 0.4841	–	1146.6
[2], 318.15 K, x1 = 0.6083	–	1154.2
[2], 318.15 K, x1 = 0.6715	–	1157.5
[2], 318.15 K, x1 = 0.7125	–	1159.2
[2], 318.15 K, x1 = 0.7299	–	1160
[2], 318.15 K, x1 = 0.8124	–	1163
[2], 318.15 K, x1 = 0.8565	–	1164.7
[2], 318.15 K, x1 = 0.8888	–	1165.8
